In general, IC50 refers to the point on the concentration scale where inhibition reaches its midpoint.

The source of these data is US20240109917A1 (ACTELION PHARMACEUTICALS LTD, priority 2020, published 2024).

Read-outs that look alike come from different tables or passages of the source.

Assay [1] addresses Tb-labeled inactive PDGFRβ (Homo sapiens (Human), UniProt P09619). Put plainly: PDGFRβ LanthaScreen Assay. The class given is binding. The conditions noted are these: read-out: PDGFR Lantha IC50.
In a further assay the target is PDGFRβ (Rattus norvegicus (Rat), UniProt Q05030). The assay can be described thus: PDGFRβ Cellular Assay (PDGFRb P-Y751 HTRF in A10 cells stimulated with PDGF-BB). It counts as cell-based. The method, boiled down:
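Phospho-Y751 PDGFRβ was measured by HTRF in lysates of A10 rat cells. Cells received compound for 3 hours before PDGF-BB stimulation (100 ng/mL working stock).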
In general terms: Time-resolved FRET reads energy transfer from a long-lived donor to a nearby acceptor.

Assay [2] addresses His6-TEV-PDGFRβ (557-1016) (Homo sapiens (Human), UniProt P09619). The assay can be described thus: PDGFRβ HTRF Assay. The class given is biochemical. The conditions noted are these: read-out: PDGFR HTRF IC50. The procedure, abridged:
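HTRF KinEASE-TK readout (665/620 nm ratio) of TK-biotin substrate phosphorylation by His-tagged PDGFRβ kinase domain. Enzyme and inhibitor preincubated 30 min, then ATP/substrate added for 3 h at room temperature before 60 min EDTA quench/detection.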

PDGFRβ, sequence (Q05030 32-1097): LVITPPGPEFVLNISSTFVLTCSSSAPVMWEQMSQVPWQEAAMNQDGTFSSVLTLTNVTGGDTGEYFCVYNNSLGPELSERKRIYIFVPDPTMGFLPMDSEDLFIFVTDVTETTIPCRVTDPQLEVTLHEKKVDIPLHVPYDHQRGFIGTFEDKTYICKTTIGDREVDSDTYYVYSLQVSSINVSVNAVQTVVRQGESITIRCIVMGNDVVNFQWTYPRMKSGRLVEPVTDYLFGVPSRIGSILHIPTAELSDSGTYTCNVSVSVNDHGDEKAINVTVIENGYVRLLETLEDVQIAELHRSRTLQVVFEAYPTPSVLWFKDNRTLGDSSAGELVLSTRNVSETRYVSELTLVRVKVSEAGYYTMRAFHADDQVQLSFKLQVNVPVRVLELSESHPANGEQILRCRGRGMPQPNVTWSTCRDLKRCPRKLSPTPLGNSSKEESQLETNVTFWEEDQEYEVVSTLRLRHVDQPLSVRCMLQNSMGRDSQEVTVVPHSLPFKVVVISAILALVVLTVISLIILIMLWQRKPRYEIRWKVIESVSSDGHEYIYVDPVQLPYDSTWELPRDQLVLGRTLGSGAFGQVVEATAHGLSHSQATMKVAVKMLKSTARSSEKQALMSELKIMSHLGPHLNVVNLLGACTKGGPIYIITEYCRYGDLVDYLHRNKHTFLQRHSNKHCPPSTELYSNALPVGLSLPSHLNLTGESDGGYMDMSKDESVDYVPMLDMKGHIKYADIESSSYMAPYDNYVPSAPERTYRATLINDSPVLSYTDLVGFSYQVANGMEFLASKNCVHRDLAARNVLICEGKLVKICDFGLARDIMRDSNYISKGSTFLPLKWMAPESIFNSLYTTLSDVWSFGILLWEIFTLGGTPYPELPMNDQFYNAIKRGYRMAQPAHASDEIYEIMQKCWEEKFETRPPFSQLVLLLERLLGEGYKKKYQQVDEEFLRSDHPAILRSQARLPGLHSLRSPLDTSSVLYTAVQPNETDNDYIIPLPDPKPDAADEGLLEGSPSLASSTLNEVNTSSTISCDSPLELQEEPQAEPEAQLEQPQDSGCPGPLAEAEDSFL
Tb-labeled inactive PDGFRβ, sequence (P09619 33-1106): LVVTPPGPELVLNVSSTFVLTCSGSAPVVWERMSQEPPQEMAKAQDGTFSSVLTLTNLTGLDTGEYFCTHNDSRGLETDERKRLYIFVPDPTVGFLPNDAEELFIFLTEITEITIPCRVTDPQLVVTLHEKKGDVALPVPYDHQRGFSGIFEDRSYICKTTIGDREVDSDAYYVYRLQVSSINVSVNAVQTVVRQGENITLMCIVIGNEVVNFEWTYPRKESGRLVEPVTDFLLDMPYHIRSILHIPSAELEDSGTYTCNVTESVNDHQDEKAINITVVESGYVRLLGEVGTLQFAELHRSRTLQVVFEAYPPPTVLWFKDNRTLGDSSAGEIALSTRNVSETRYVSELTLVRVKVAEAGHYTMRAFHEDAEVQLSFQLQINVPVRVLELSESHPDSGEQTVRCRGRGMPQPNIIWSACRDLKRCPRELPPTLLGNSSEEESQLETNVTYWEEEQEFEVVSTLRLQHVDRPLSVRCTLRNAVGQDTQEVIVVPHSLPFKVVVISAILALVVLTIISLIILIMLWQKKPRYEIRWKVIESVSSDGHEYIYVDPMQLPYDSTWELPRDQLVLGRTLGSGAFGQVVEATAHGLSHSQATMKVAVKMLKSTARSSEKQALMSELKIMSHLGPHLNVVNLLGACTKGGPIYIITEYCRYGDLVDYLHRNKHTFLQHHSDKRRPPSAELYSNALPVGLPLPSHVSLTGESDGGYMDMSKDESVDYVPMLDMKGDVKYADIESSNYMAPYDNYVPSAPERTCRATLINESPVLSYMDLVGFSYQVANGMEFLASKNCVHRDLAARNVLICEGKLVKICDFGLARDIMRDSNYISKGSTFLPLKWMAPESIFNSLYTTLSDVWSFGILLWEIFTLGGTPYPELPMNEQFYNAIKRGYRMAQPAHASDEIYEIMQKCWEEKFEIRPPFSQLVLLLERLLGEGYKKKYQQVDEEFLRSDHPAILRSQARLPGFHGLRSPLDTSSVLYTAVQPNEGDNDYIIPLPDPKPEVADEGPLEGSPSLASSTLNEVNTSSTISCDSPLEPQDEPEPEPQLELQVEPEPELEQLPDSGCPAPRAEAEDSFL
His6-TEV-PDGFRβ (557-1016), sequence (P09619 557-1016): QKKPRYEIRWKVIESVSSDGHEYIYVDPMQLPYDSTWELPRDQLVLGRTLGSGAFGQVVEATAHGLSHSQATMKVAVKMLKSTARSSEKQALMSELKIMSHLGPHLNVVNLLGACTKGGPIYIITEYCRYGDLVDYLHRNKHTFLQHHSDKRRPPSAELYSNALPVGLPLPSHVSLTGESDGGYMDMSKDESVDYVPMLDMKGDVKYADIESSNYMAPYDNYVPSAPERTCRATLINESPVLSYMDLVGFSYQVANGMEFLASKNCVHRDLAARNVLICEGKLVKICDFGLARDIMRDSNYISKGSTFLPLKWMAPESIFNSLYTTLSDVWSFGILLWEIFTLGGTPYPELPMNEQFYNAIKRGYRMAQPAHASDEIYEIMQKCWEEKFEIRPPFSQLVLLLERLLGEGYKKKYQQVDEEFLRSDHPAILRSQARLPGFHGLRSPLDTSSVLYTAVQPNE

Turning to `Cc1ncc(NC(=O)CN2CCCC23CCC3)cc1NC(=O)c1cnn2cc(-c3cnc4n3CCOC4)sc12` [Example 418, N-(5-(2-(5-azaspiro[3.4]octan-5-yl)acetamido)-2-methylpyridin-3-yl)-2-(5,6-dihydro-8H-imidazo[2,1-c][1,4]oxazin-3-yl)pyrazolo[5,1-b]thiazole-7-carboxamide], the figures for the IC50 (in assay [1]; on PDGFRβ (read-out: PDGFR Cellular IC50); in assay [2]) were 2.9 nM, 6.5 nM and 0.5 nM, respectively.
With `Cc1ncc(NC(=O)CN2CCCCC2)cc1NC(=O)c1cnn2cc(-c3cnn4c3OCCC4)sc12` [Example 419, 2-(6,7-dihydro-5H-pyrazolo[5,1-b][1,3]oxazin-3-yl)-N-(2-methyl-5-(2-(piperidin-1-yl)acetamido)pyridin-3-yl)pyrazolo[5,1-b]thiazole-7-carboxamide], the IC50 in assay [1] amounted to 2.8 nM; on PDGFRβ (read-out: PDGFR Cellular IC50), 2.6 nM; in assay [2], 0.3 nM.
Consider `Cc1ncc(NC(=O)CN2CCCCCC2)cc1NC(=O)c1cnn2cc(-c3cnn4c3OCCC4)sc12` [Example 420, N-(5-(2-(azepan-1-yl)acetamido)-2-methylpyridin-3-yl)-2-(6,7-dihydro-5H-pyrazolo[5,1-b][1,3]oxazin-3-yl)pyrazolo[5,1-b]thiazole-7-carboxamide], for which the figures for the IC50 (in assay [1]; at PDGFRβ (read-out: PDGFR Cellular IC50); in assay [2]) were 2.1 nM, 2.1 nM and 0.2 nM, respectively.
Consider `Cc1ncc(NC(=O)CNC2CCCC2)cc1NC(=O)c1cnn2cc(-c3cnn4c3OCCC4)sc12` [Example 421, N-(5-(2-(cyclopentylamino)acetamido)-2-methylpyridin-3-yl)-2-(6,7-dihydro-5H-pyrazolo[5,1-b][1,3]oxazin-3-yl)pyrazolo[5,1-b]thiazole-7-carboxamide], for which the IC50 in assay [1] was 2 nM; at PDGFRβ (read-out: PDGFR Cellular IC50), 6.2 nM; in assay [2], 0.2 nM.
For the molecule `Cc1ncc(NC(=O)CNC2CCCC2)cc1NC(=O)c1cnn2cc(-c3cnn4c3CCC4)sc12` [Example 422, N-(5-(2-(cyclopentylamino)acetamido)-2-methylpyridin-3-yl)-2-(5,6-dihydro-4H-pyrrolo[1,2-b]pyrazol-3-yl)pyrazolo[5,1-b]thiazole-7-carboxamide], the concentration for half-maximal inhibition (IC50) in assay [1] came out at 1.1 nM; on PDGFRβ (read-out: PDGFR Cellular IC50), 2.6 nM; in assay [2], 0.2 nM.
In the case of `Cc1ncc(NC(=O)CN2CC3(CCCCO3)C2)cc1NC(=O)c1cnn2cc(-c3cnn4c3OCCC4)sc12` [Example 423, N-(5-(2-(5-oxa-2-azaspiro[3.5]nonan-2-yl)acetamido)-2-methylpyridin-3-yl)-2-(6,7-dihydro-5H-pyrazolo[5,1-b][1,3]oxazin-3-yl)pyrazolo[5,1-b]thiazole-7-carboxamide], the IC50 in assay [1] was determined as 3.7 nM; at PDGFRβ (read-out: PDGFR Cellular IC50), 15.8 nM; in assay [2], 0.4 nM.
On the same counts, the results for `Cc1ncc(NC(=O)CN2CC3(CCCCO3)C2)cc1NC(=O)c1cnn2cc(-c3cnn4c3CCC4)sc12` [Example 424, N-(5-(2-(5-oxa-2-azaspiro[3.5]nonan-2-yl)acetamido)-2-methylpyridin-3-yl)-2-(5,6-dihydro-4H-pyrrolo[1,2-b]pyrazol-3-yl)pyrazolo[5,1-b]thiazole-7-carboxamide] are 2.2 nM, 6.8 nM and 0.3 nM.
`Cc1ncc(NC(=O)CN2CC(C)(C)C2)cc1NC(=O)c1cnn2cc(-c3c(C)nn(C4COC4)c3C)sc12` [Example 425, 2-(3,5-dimethyl-1-(oxetan-3-yl)-1H-pyrazol-4-yl)-N-(5-(2-(3,3-dimethylazetidin-1-yl)acetamido)-2-methylpyridin-3-yl)pyrazolo[5,1-b]thiazole-7-carboxamide]: the IC50 in assay [1] came to 6.8 nM; on PDGFRβ (PDGFR Cellular IC50), 11.7 nM; in assay [2], 0.7 nM.
For `Cc1ncc(NC(=O)CC2CNC2)cc1NC(=O)c1cnn2cc(-c3cnn4c3CCC4)sc12` [Example 426, N-(5-(2-(azetidin-3-yl)acetamido)-2-methylpyridin-3-yl)-2-(5,6-dihydro-4H-pyrrolo[1,2-b]pyrazol-3-yl)pyrazolo[5,1-b]thiazole-7-carboxamide], the values for the IC50 (in assay [1]; at PDGFRβ (read-out: PDGFR Cellular IC50); in assay [2]) were 482 nM, > 2000 nM and 11.5 nM, respectively.
For the molecule `Cc1ncc(NC(=O)CC2CN(C)C2)cc1NC(=O)c1cnn2cc(-c3cnn4c3CCC4)sc12` [Example 427, 2-(5,6-dihydro-4H-pyrrolo[1,2-b]pyrazol-3-yl)-N-(2-methyl-5-(2-(1-methylazetidin-3-yl)acetamido)pyridin-3-yl)pyrazolo[5,1-b]thiazole-7-carboxamide], the IC50 was 150 nM in assay [1], > 2000 nM on PDGFRβ (read-out: PDGFR Cellular IC50) and 2.1 nM in assay [2].
For `Cc1ncc(NC(=O)CN2CC(C)(C)C2)cc1NC(=O)c1cnn2cc(-c3cnn(C(F)F)c3)sc12` [Example 428, 2-(1-(difluoromethyl)-1H-pyrazol-4-yl)-N-(5-(2-(3,3-dimethylazetidin-1-yl)acetamido)-2-methylpyridin-3-yl)pyrazolo[5,1-b]thiazole-7-carboxamide], the IC50 is 17.3 nM in assay [1], 7.9 nM at PDGFRβ (read-out: PDGFR Cellular IC50) and 0.8 nM in assay [2].
Consider `Cc1ncc(NC(=O)CN2CC(C)(C)C2)cc1NC(=O)c1cnn2cc(-c3cncnc3)sc12` [Example 429, N-(5-(2-(3,3-dimethylazetidin-1-yl)acetamido)-2-methylpyridin-3-yl)-2-(pyrimidin-5-yl)pyrazolo[5,1-b]thiazole-7-carboxamide], for which the IC50 in assay [1] was 185 nM; on PDGFRβ (read-out: PDGFR Cellular IC50) it was 30.9 nM; in assay [2] it was 6.3 nM.
With `Cc1ncc(NC(=O)CN2CC(C)(C)C2)cc1NC(=O)c1cnn2cc(-c3cn(C)nc3C)sc12` [Example 430, 2-(1,3-Dimethyl-1H-pyrazol-4-yl)-N-(5-(2-(3,3-dimethylazetidin-1-yl)acetamido)-2-methylpyridin-3-yl)pyrazolo[5,1-b]thiazole-7-carboxamide], the IC50 in assay [1] was found to be 1.8 nM; at PDGFRβ (read-out: PDGFR Cellular IC50), 1 nM; in assay [2] it was 0.2 nM.
`Cc1ncc(NC(=O)CN2C[C@@H](C)O[C@H](C)C2)cc1NC(=O)c1cnn2cc(-c3cn(C)nc3C)sc12` [Example 431]: the figures for the concentration for half-maximal inhibition (IC50) (in assay [1]; on PDGFRβ (read-out: PDGFR Cellular IC50); in assay [2]) were 3.5 nM, 5 nM and 0.5 nM, respectively.
Regarding `Cc1ncc(NC(=O)CN2CC(C)(C)C2)cc1NC(=O)c1cnn2cc(-c3cnn(C)c3C)sc12` [Example 434, 2-(1,5-Dimethyl-1H-pyrazol-4-yl)-N-(5-(2-(3,3-dimethylazetidin-1-yl)acetamido)-2-methylpyridin-3-yl)pyrazolo[5,1-b]thiazole-7-carboxamide], the figures for the concentration for half-maximal inhibition (IC50) (in assay [1]; on PDGFRβ (read-out: PDGFR Cellular IC50); in assay [2]) were 2.2 nM, 2.4 nM and 0.2 nM, respectively.
In the case of `Cc1ncc(NC(=O)CN2CC(C)(C)C2)cc1NC(=O)c1cnn2cc(-c3cnn(CCS(C)(=O)=O)c3)sc12` [Example 435, N-(5-(2-(3,3-Dimethylazetidin-1-yl)acetamido)-2-methylpyridin-3-yl)-2-(1-(2-(methylsulfonyl)ethyl)-1H-pyrazol-4-yl)pyrazolo[5,1-b]thiazole-7-carboxamide], the half-inhibitory concentration (IC50) came to 6.8 nM in assay [1], 139 nM at PDGFRβ (read-out: PDGFR Cellular IC50) and 0.6 nM in assay [2].
As to `CCOc1ncccc1-c1cn2ncc(C(=O)Nc3cc(NC(=O)CN4CC(C)(C)C4)cnc3C)c2s1` [Example 436, N-(5-(2-(3,3-Dimethylazetidin-1-yl)acetamido)-2-methylpyridin-3-yl)-2-(2-ethoxypyridin-3-yl)pyrazolo[5,1-b]thiazole-7-carboxamide], the 50% inhibitory concentration (IC50) in assay [1] was found to be 0.9 nM; on PDGFRβ (read-out: PDGFR Cellular IC50), 1.6 nM; in assay [2], 0.1 nM.
Take `Cc1ncc(NC(=O)CN2CC(C)(C)C2)cc1NC(=O)c1cnn2cc(-c3cccnc3OC(F)(F)F)sc12` [Example 437, N-(5-(2-(3,3-dimethylazetidin-1-yl)acetamido)-2-methylpyridin-3-yl)-2-(2-(trifluoromethoxy)pyridin-3-yl)pyrazolo[5,1-b]thiazole-7-carboxamide]: the half-maximal inhibitory concentration (IC50) was determined as 4.6 nM in assay [1], 6 nM at PDGFRβ (read-out: PDGFR Cellular IC50) and 0.4 nM in assay [2].
As for `COC1CN(CC(=O)Nc2cnc(C)c(NC(=O)c3cnn4cc(-c5cn(C)nc5C)sc34)c2)C1` [Example 441, 2-(1,3-Dimethyl-1H-pyrazol-4-yl)-N-(5-(2-(3-methoxyazetidin-1-yl)acetamido)-2-methylpyridin-3-yl)pyrazolo[5,1-b]thiazole-7-carboxamide], the IC50 in assay [1] was determined as 19.7 nM; at PDGFRβ (read-out: PDGFR Cellular IC50) it was 30.5 nM; in assay [2], 0.7 nM.
In the case of `COC1(C)CN(CC(=O)Nc2cnc(C)c(NC(=O)c3cnn4cc(-c5cn(C)nc5C)sc34)c2)C1` [Example 442, 2-(1,3-Dimethyl-1H-pyrazol-4-yl)-N-(5-(2-(3-methoxy-3-methylazetidin-1-yl)acetamido)-2-methylpyridin-3-yl)pyrazolo[5,1-b]thiazole-7-carboxamide], the IC50 in assay [1] is 3.1 nM; on PDGFRβ (read-out: PDGFR Cellular IC50) it was 8.1 nM; in assay [2] it was 0.3 nM.
For `Cc1ncc(NC(=O)CN2CCC[C@H]2C)cc1NC(=O)c1cnn2cc(-c3nn(C)nc3C)sc12` [Example 443, (R)-2-(2,5-dimethyl-2H-1,2,3-triazol-4-yl)-N-(2-methyl-5-(2-(2-methylpyrrolidin-1-yl)acetamido)pyridin-3-yl)pyrazolo[5,1-b]thiazole-7-carboxamide], the values for the 50% inhibitory concentration (IC50) (in assay [1]; at PDGFRβ (read-out: PDGFR Cellular IC50); in assay [2]) were 4.4 nM, 3.9 nM and 0.4 nM, respectively.
